Laboratory results published in US7138361B2, “Herbicidal heterocycles” (E. I. du Pont de Nemours and Company, priority 2000, dated 2006).

How the values were obtained:
Assay type in all cases: in vivo
[1] = system: woolly cupgrass (Eriochloa villosa); assay: Test C preemergence; conditions: for Plant response rating, Cupgrass, Woolly: scale 0 to 100, 0 no effect, 100 complete control; for Plant response rating (0 to 100), Cupgrass, Woolly: visual evaluation after 12 to 14 days
Text: (§1) Seeds of plant species selected from bermudagrass (Cynodon dactylon), Surinam grass (Brachiaria decumbens), cocklebur (Xanthium strumarium), corn (Zea mays), crabgrass (Digitaria sanguinalis), woolly cupgrass (Eriochloa villosa), giant foxtail (Setaria faberii), goosegrass (Eleusine indica), johnsongrass (Sorghum halepense), kochia (Kochia scoparia), lambsquarters (Chenopodium album), morningglory (Ipomoea hederacea), yellow nutsedge (Cyperus esculentus), pigweed (Amaranthus retroflexus), common ragweed (Ambrosia elatior), soybean (Glycine max) and velvetleaf (Abutilon theophrasti) were planted and treated preemergence with test chemicals formulated in a non-phytotoxic solvent mixture which included a surfactant.
(§2) At the same time, plants selected from these crop and weed species and also winter barley (Hordeum vulgare), blackgrass (Alopecurus myosuroides), canary grass (Phalaris minor), chickweed (Stellaria media), downy brome (Bromus tectorum), green foxtail (Setaria viridis), Italian ryegrass (Lolium multiflorum), wheat (Triticum aestivum), wild oat (Avena fatua) and windgrass (Apera spica-venti) were treated with postemergence applications of some of the test chemicals formulated in the same manner. Plants ranged in height from 2 to 18 cm (1- to 4-leaf stage) for postemergence treatments. Plant species in the flooded paddy test consisted of rice (Oryza saliva), smallflower flatsedge (Cyperus difformis), duck salad (Heteranthera limosa) and barnyardgrass (Echinochloa crus-galli) grown to the 2-leaf stage for testing. Treated plants and controls were maintained in a greenhouse for 12 to 14 days, after which time all species were compared to controls and visually evaluated. Plant response ratings, summarized in Table C, are based on a scale of 0 to 100 where 0 is no effect and 100 is complete control. A dash (-) response means no test result.

[2] = system: goosegrass (Eleusine indica); assay: Test C preemergence; conditions: for Plant response rating, Goosegrass: scale 0 to 100, 0 no effect, 100 complete control; for Plant response rating (0 to 100), Goosegrass: visual evaluation after 12 to 14 days
Text: as §1, §2

[3] = system: kochia (Kochia scoparia); assay: Test C preemergence; conditions: for Plant response rating, Kochia: scale 0 to 100, 0 no effect, 100 complete control; for Plant response rating (0 to 100), Kochia: visual evaluation after 12 to 14 days
Text: as §1, §2

[4] = system: yellow nutsedge (Cyperus esculentus); assay: Test C preemergence; conditions: for Plant response rating, Nutsedge: scale 0 to 100, 0 no effect, 100 complete control; for Plant response rating (0 to 100), Nutsedge: visual evaluation after 12 to 14 days
Text: as §1, §2

[5] = system: cocklebur (Xanthium strumarium); assay: Test C preemergence; conditions: for Plant response rating, Cocklebur: scale 0 to 100, 0 no effect, 100 complete control; for Plant response rating (0 to 100), Cocklebur: visual evaluation after 12 to 14 days
Text: as §1, §2

[6] = system: bermudagrass (Cynodon dactylon); assay: Test C preemergence; conditions: for Plant response rating, Bermudagrass: scale 0 to 100, 0 no effect, 100 complete control; for Plant response rating (0 to 100 where 0 is no effect and 100 is complete control), Bermudagrass: visual evaluation after 12 to 14 days
Text: as §1, §2

[7] = system: johnsongrass (Sorghum halepense); assay: Test C preemergence; conditions: for Plant response rating, Johnsongrass: scale 0 to 100, 0 no effect, 100 complete control; for Plant response rating (0 to 100), Johnsongrass: visual evaluation after 12 to 14 days
Text: as §1, §2

[8] = system: soybean (Glycine max); assay: Test C preemergence; conditions: preemergence; for Plant response rating (0 to 100), Soybean: visual evaluation after 12 to 14 days
Text: as §1, §2

[9] = system: crabgrass (Digitaria sanguinalis); assay: Test C preemergence; conditions: for Plant response rating, Crabgrass: scale 0 to 100, 0 no effect, 100 complete control; for Plant response rating (0 to 100), Crabgrass: visual evaluation after 12 to 14 days
Text: as §1, §2

[10] = system: corn (Zea mays); assay: Test C preemergence; conditions: for Plant response rating, Corn: scale 0 to 100, 0 no effect, 100 complete control; for Plant response rating (0 to 100), Corn: visual evaluation after 12 to 14 days
Text: as §1, §2

[11] = system: Surinam grass (Brachiaria decumbens); assay: Test C preemergence; conditions: for Plant response rating, Surinam grass: scale 0 to 100, 0 no effect, 100 complete control; for Plant response rating (0 to 100), Surinam grass: visual evaluation after 12 to 14 days
Text: as §1, §2

[12] = system: giant foxtail (Setaria faberii); assay: Test C preemergence; conditions: for Plant response rating, Foxtail, Giant: scale 0 to 100, 0 no effect, 100 complete control
Text: as §1, §2

[13] = system: pigweed (Amaranthus retroflexus); assay: Test C preemergence; conditions: preemergence; for Plant response rating (0 to 100), Pigweed: visual evaluation after 12 to 14 days
Text: as §1, §2

[14] = system: morningglory (Ipomoea hederacea); assay: Test C preemergence; conditions: for Plant response rating, Morningglory: scale 0 to 100, 0 no effect, 100 complete control; for Plant response rating (0 to 100), Morningglory: visual evaluation after 12 to 14 days
Text: as §1, §2

[15] = system: velvetleaf (Abutilon theophrasti); assay: Test C preemergence; conditions: preemergence; for Plant response rating (0 to 100), Velvetleaf: visual evaluation after 12 to 14 days
Text: as §1, §2

[16] = system: common ragweed (Ambrosia elatior); assay: Test C preemergence; conditions: preemergence; for Plant response rating (0 to 100), Ragweed, Common: visual evaluation after 12 to 14 days
Text: as §1, §2

[17] = system: Nightshade; assay: Test C preemergence; conditions: scale 0 to 100, 0 no effect, 100 complete control
Text: as §1, §2

[18] = system: barnyardgrass (Echinochloa crus-galli); assay: Test C flooded paddy test; conditions: for Barnyardgrass plant response rating: Flooded Paddy, scale 0 to 100, 0 no effect, 100 complete control; for Plant response rating, Barnyardgrass: flooded paddy test, scale 0 to 100 (0 no effect, 100 complete control)
How it was run: (§3)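 Each species was cultivated to 2 leaves in flooded paddy pots, then treated. After a greenhouse period of 12–14 days, the plants were scored visually relative to controls from 0 (no effect) to 100 (complete control).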

[19] = system: smallflower flatsedge (Cyperus difformis); assay: Test C flooded paddy test; conditions: for Flatsedge plant response rating: Flooded Paddy, scale 0 to 100, 0 no effect, 100 complete control; for Plant response rating, Flatsedge: flooded paddy test, scale 0 to 100 (0 no effect, 100 complete control)
How it was run: as §3

[20] = system: duck salad (Heteranthera limosa); assay: Test C flooded paddy test; conditions: for Ducksalad plant response rating: Flooded Paddy, scale 0 to 100, 0 no effect, 100 complete control; for Plant response rating, Ducksalad: flooded paddy test, scale 0 to 100 (0 no effect, 100 complete control)
How it was run: as §3

[21] = Rate 125 g/ha, scale 0 to 100, 0 no effect, 100 complete control

## CC1(c2ccn(C3OCN(c4cccc(C(F)(F)F)c4)C3=O)n2)CC1 (stereo not shown) [Compound 62]
[1]; Rate 62 g/ha
  Plant response rating, Cupgrass, Woolly: 30
[1]; preemergence, Rate 250 g/ha
  Plant response rating (0 to 100), Cupgrass, Woolly: 90
[1]; preemergence, Rate 500 g/ha
  Plant response rating (0 to 100), Cupgrass, Woolly: 90
[1]; preemergence, Rate 125 g/ha
  Plant response rating, Cupgrass, Woolly: 50
[2]; Rate 62 g/ha
  Plant response rating, Goosegrass: 80
[2]; preemergence, Rate 250 g/ha
  Plant response rating (0 to 100), Goosegrass: 100
[2]; preemergence, Rate 500 g/ha
  Plant response rating (0 to 100), Goosegrass: 100
[2]; preemergence, Rate 125 g/ha
  Plant response rating, Goosegrass: 90
[3]; Rate 62 g/ha
  Plant response rating, Kochia: 0
[3]; preemergence, Rate 250 g/ha
  Plant response rating (0 to 100), Kochia: 90
[3]; preemergence, Rate 500 g/ha
  Plant response rating (0 to 100), Kochia: 90
[3]; preemergence, Rate 125 g/ha
  Plant response rating, Kochia: 60
[4]; Rate 62 g/ha
  Plant response rating, Nutsedge: 0
[4]; preemergence, Rate 250 g/ha
  Plant response rating (0 to 100), Nutsedge: 20
[4]; preemergence, Rate 500 g/ha
  Plant response rating (0 to 100), Nutsedge: 70
[4]; preemergence, Rate 125 g/ha
  Plant response rating, Nutsedge: 0
[5]; Rate 62 g/ha
  Plant response rating, Cocklebur: 0
[5]; preemergence, Rate 250 g/ha
  Plant response rating (0 to 100), Cocklebur: 0
[5]; preemergence, Rate 500 g/ha
  Plant response rating (0 to 100), Cocklebur: 0
[5]; preemergence, Rate 125 g/ha
  Plant response rating, Cocklebur: 0
[6]; Rate 62 g/ha
  Plant response rating, Bermudagrass: 40
[6]; preemergence, Rate 250 g/ha
  Plant response rating (0 to 100 where 0 is no effect and 100 is complete control), Bermudagrass: 100
[6]; preemergence, Rate 500 g/ha
  Plant response rating (0 to 100 where 0 is no effect and 100 is complete control), Bermudagrass: 100
[6]; preemergence, Rate 125 g/ha
  Plant response rating, Bermudagrass: 70
[7]; Rate 62 g/ha
  Plant response rating, Johnsongrass: 20
[7]; preemergence, Rate 250 g/ha
  Plant response rating (0 to 100), Johnsongrass: 60
[7]; preemergence, Rate 500 g/ha
  Plant response rating (0 to 100), Johnsongrass: 100
[7]; preemergence, Rate 125 g/ha
  Plant response rating, Johnsongrass: 40
[8]; Rate 250 g/ha
  Plant response rating (0 to 100), Soybean: 0
[8]; Rate 500 g/ha
  Plant response rating (0 to 100), Soybean: 0
[8]; [21]
  Plant response rating, Soybean: 0
[9]; Rate 62 g/ha
  Plant response rating, Crabgrass: 0
[9]; preemergence, Rate 250 g/ha
  Plant response rating (0 to 100), Crabgrass: 100
[9]; preemergence, Rate 500 g/ha
  Plant response rating (0 to 100), Crabgrass: 100
[9]; preemergence, Rate 125 g/ha
  Plant response rating, Crabgrass: 90
[10]; Rate 62 g/ha
  Plant response rating, Corn: 0
[10]; preemergence, Rate 250 g/ha
  Plant response rating (0 to 100), Corn: 0
[10]; preemergence, Rate 500 g/ha
  Plant response rating (0 to 100), Corn: 20
[10]; preemergence, Rate 125 g/ha
  Plant response rating, Corn: 0
[11]; Rate 62 g/ha
  Plant response rating, Surinam grass: 0
[11]; preemergence, Rate 250 g/ha
  Plant response rating (0 to 100), Surinam grass: 60
[11]; preemergence, Rate 500 g/ha
  Plant response rating (0 to 100), Surinam grass: 80
[11]; preemergence, Rate 125 g/ha
  Plant response rating, Surinam grass: 30
[12]; Rate 62 g/ha
  Plant response rating, Foxtail, Giant: 0
[12]; preemergence, Rate 500 g/ha, visual evaluation after 12 to 14 days
  Plant response rating (0 to 100), Foxtail, Giant: 100
[12]; preemergence, Rate 125 g/ha
  Plant response rating, Foxtail, Giant: 0
[13]; Rate 250 g/ha
  Plant response rating (0 to 100), Pigweed: 0
[13]; Rate 500 g/ha
  Plant response rating (0 to 100), Pigweed: 100
[13]; [21]
  Plant response rating, Pigweed: 0
[14]; Rate 62 g/ha
  Plant response rating, Morningglory: 0
[14]; preemergence, Rate 250 g/ha
  Plant response rating (0 to 100), Morningglory: 0
[14]; preemergence, Rate 500 g/ha
  Plant response rating (0 to 100), Morningglory: 0
[14]; preemergence, Rate 125 g/ha
  Plant response rating, Morningglory: 0
[15]; Rate 250 g/ha
  Plant response rating (0 to 100), Velvetleaf: 0
[15]; Rate 500 g/ha
  Plant response rating (0 to 100), Velvetleaf: 20
[15]; [21]
  Plant response rating, Velvetleaf: 0
[16]; Rate 250 g/ha
  Plant response rating (0 to 100), Ragweed, Common: 0
[16]; Rate 500 g/ha
  Plant response rating (0 to 100), Ragweed, Common: 0
[16]; [21]
  Plant response rating, Ragweed, Common: 0
[17]; Rate 62 g/ha
  Plant response rating, Nightshade: 0
[17]; Rate 125 g/ha
  Plant response rating, Nightshade: 0
[18]; Rate 250 g/ha
  Barnyardgrass plant response rating: 20
[18]; Rate 500 g/ha
  Barnyardgrass plant response rating: 80
[18]; Rate 62 g/ha
  Plant response rating, Barnyardgrass: 0
[18]; Rate 125 g/ha
  Plant response rating, Barnyardgrass: 20
[19]; Rate 250 g/ha
  Flatsedge plant response rating: 90
[19]; Rate 500 g/ha
  Flatsedge plant response rating: 100
[19]; Rate 62 g/ha
  Plant response rating, Flatsedge: 0
[19]; Rate 125 g/ha
  Plant response rating, Flatsedge: 90
[20]; Rate 250 g/ha
  Ducksalad plant response rating: 0
[20]; Rate 500 g/ha
  Ducksalad plant response rating: 0
[20]; Rate 62 g/ha
  Plant response rating, Ducksalad: 0
[20]; Rate 125 g/ha
  Plant response rating, Ducksalad: 0
